Laboratory results reported in US20260191998A1, “INDOLE PHTHALOCYANINE COMPOUND, PREPARATION METHOD THEREFOR, AND USE THEREOF IN TUMOR DIAGNOSIS IMAGING” (JIANGSU YAHONG MEDITECH CO., LTD., priority 2022, published 2026).

Legend:
[1] = Kinetic solubility in phosphate buffered saline (HPLC); type: physicochemical; conditions: phosphate buffered saline (PBS), aqueous buffer, kinetic from dmso stock, 25° C., shaken 2 hours, from 10 mM DMSO stock
Method: The compounds were weighed in an appropriate amount and dissolved in DMSO to prepare a 10 mM stock solution. 30 μL of the stock solution was taken and 970 μL of phosphate buffered saline solution (PBS) was added thereto. The solution was shaken at 25° C. on a thermostatic mixer for 2 hours, and centrifuged at 12000 rpm for 10 minutes. The supernatant was taken, and the kinetic solubility of each compound in phosphate buffered saline solution (PBS) was determined by Waters Acquity Arc HPLC.

hERG channels = hERG channels (Homo sapiens, UniProt Q12809); assay: hERG whole-cell patch clamp in HEK 293 cells stably expressing hERG; type: cell-based; conditions: HEK 293 stably expressing hERG, tail current
Method: The HEK 293 cell line (K1236) stably expressing hERG was purchased from Invitrogen. Cells were cultured in 85% DMEM, 10% dialyzed FBS, 0.1 mM NEAA, 25 mM HEPES, 100 U/mL penicillin-streptomycin, 5 μg/mL blasticidin and 400 μg/mL geneticin. Cells were split using TrypLE™ about three times a week, and maintained at a confluence of about 40% to about 80%. Before measurement, cells were cultured at a density of 5×10^5 in a 6 cm culture dish and induced with 1 μg/mL doxycycline for 48 hours.
Extracellular solution (mM): 132 NaCl, 4 KCl, […], 0.5 MgCl2, 11.1 glucose, 10 HEPES (pH 7.35 adjusted with NaOH);
Intercellular solution (mM): 140 KCl, 2 MgCl2, 10 EGTA, 10 HEPES, 5 MgATP (pH 7.35 adjusted with KOH).
The test compounds were formulated in DMSO to prepare a stock solution with a final concentration of 10 mM.
Then, the stock solution of each compound was diluted with DMSO in a 1:3 serial dilution to prepare five intermediate solutions with concentrations of 3, 1, 0.33, 0.12, 0.04 mM or 3.33, 1.11, 0.37, 0.12 mM, respectively.
Before testing, the final working solutions were prepared by diluting the intermediate solutions 1000 times with the extracellular solution. The concentration of DMSO in the working solutions was within a range around 0.1%.
The working solutions at five different concentrations of 3, 1, 0.33, 0.12 and 0.04 μM were used to determine the potential inhibition effect of the compounds on hERG channels and to fit concentration-response curves and calculate IC50.
The coverslip was removed from the cell culture dish and placed on a microscope stage.
A 10× objective was used to locate cells to be observed. An electrode tip was located under the microscope using the 10× objective by focusing above the plane of the cells. Once the tip was in focus, the electrode was advanced downward towards the cells under rough control of the manipulator, while the objective was moved so as to keep the tip in focus.
When the electrode was directly over a cell, the objective was switched to a 40× objective and fine control of the manipulator was used to enable to gradually approach the cell surface.
With gentle suction through a side port of an electrode holder, a giga-ohm seal was formed.
Cfast was used to eliminate the capacitive current consistent with the voltage step. Brief and strong suction was applied repeatedly until the membrane patch ruptured and the whole-cell configuration was obtained.
At this point, membrane potential was set to −60 mV in order to ensure that hERG channels were not open. Then, Cslow on the amplifier was used to remove the spikes of capacitive current.
Holding potential was set to −90 mV for 500 ms. Current was recorded at 20 kHz and filtering was carried out at 10 kHz. Leak current was tested at −80 mV for 500 ms.
The hERG current was elicited by depolarizing at +30 mV for 4.8 seconds, and then the voltage was restored to −50 mV for 5.2 seconds to remove the inactivation and observe the deactivating tail current. The maximum of tail current size was used to determine hERG current amplitude.
Current was recorded for 120 seconds to evaluate the current stability. Only stable cells with recording parameters above thresholds were used for drug administrations.
Firstly, vehicle control was applied to the cells to establish the baseline. […] The hERG current in the presence of the test compound was recorded for about 5 minutes to reach a steady state, and then 5 sweeps were captured. For dose-response testing, multiple compounds were applied to the cells cumulatively from low to high concentrations (multiple compounds were detected simultaneously). The positive control, Dofetilide at a concentration of 150 nM, was also applied to each cell post hERG current measurement at the highest concentration of the test compound, which was used as an internal low control for normalization of percentage inhibition. […]

[2] = UV-VIS absorption spectra (optical property test); type: physicochemical; conditions: 10 μM, DMSO solution; for Absorbance × 10^4: at maximum absorption peak
Method: The UV-VIS absorption spectra of the compounds (10 μM, DMSO solution) were detected using Shimadzu UV2600 spectrophotometer, and the maximum absorption peak and absorbance of each compound were obtained.

[3] = MRC5 proliferation test (CellTiter-Glo); type: cell-based; conditions: human, MRC5 cells (normal cells), 3 days incubation, read-out: MRC5 (IC50, nM), inhibitory effect on proliferation of normal cells
Excerpt: • MRC5 (ATCC; Cat. No.: CCL-171)
• Culture medium EMEM (ATCC, 30-2003) • Fetal bovine serum (Gibco, 10091148) • Penicillin-streptomycin double antibody (Gibco, S110JV) • DPBS (Gibco, 14190-144) • CellTiter-Glo® assay kit (Promega, G7573) • Trypsin (0.25%) (Gibco, 25200-056) • DMSO (Sigma, D2650)
• Biosafety cabinet (AIRTECH, BSC-1300A II) • Automated cell counter (Life Technologies, countess II) • Multifunctional microplate reader (Biotek, H1FM) • Shaker (Hangzhou Allsheng Instruments Co., Ltd., OS-100) • XLFIT 5.3 (Shanghai Inforstack Co., Ltd.)
For this test method, the following experiment was performed in a biosafety cabinet with the specific steps as follows. • (1) Cells were seeded in a […] (in which the culture medium was EMEM). One day later, the previous culture medium EMEM was poured off, and 5 mL of DPBS was added to wash the cells. Then DPBS was pipetted and discarded. An appropriate amount of trypsin was then added. The plate was placed in a 5% CO2 cell incubator at 37° C. to digestion for about 2 to 5 minutes, and then taken out. New culture medium EMEM was added. The cells were pipetted up and down to resuspend evenly. The cells were then counted by an automated cell counter. • (2) Cells were seeded in columns 1 to 11 of a 96-well plate (Corning, Cat. No. 3610) at a density of 3000 cells per well in 100 μL of culture medium EMEM, and 100 μL of culture medium EMEM free of cells was added into column 12 of the wells. Then, the plate was placed in the 5% CO2 incubator at 37° C. for 24 hours. • (3) Next, the compound of the present invention was 2-fold serially diluted into 8 dose points starting at 10 μM. 10 μL of the serially diluted compound was pipetted and added to 100 μL of cells in columns 1 to 10, and 10 μL of the culture medium EMEM containing 2% DMSO was added to both columns 11 and 12. The plate was placed in the 5% CO2 incubator at 37° C. and incubated for 3 days (Note: column 11 was used as a MAX well with cells but without the compound; column 12 was used as a MIN well without both cell and compound). • (4) The cell viability detection reagent in the above CellTiter-Glo® assay kit was then added to the 96-well plate at 50 μL per well according to the instruction, and shaken on a shaker in dark for 5 to 10 minutes. The cell viability was then measured using a multifunctional microplate reader. Finally, the inhibition of the compound of the present invention on cell proliferation was plotted by XLFIT software, and the half inhibitory concentration, IC50 value of the compound of the present invention was calculated therefrom.

RT112 tumor = assay: Tumor/background ratio in subcutaneous RT112 tumor model mice; type: in vivo; conditions: 2 mpk intraperitoneal, 48 hours after injection
Excerpt: The subcutaneous tumor model mice inoculated with RT112 tumor were selected. Each compound was administrated at a dose of 2 mpk, and intraperitoneally injected.

Chain of hERG channels (Q12809 whole entry): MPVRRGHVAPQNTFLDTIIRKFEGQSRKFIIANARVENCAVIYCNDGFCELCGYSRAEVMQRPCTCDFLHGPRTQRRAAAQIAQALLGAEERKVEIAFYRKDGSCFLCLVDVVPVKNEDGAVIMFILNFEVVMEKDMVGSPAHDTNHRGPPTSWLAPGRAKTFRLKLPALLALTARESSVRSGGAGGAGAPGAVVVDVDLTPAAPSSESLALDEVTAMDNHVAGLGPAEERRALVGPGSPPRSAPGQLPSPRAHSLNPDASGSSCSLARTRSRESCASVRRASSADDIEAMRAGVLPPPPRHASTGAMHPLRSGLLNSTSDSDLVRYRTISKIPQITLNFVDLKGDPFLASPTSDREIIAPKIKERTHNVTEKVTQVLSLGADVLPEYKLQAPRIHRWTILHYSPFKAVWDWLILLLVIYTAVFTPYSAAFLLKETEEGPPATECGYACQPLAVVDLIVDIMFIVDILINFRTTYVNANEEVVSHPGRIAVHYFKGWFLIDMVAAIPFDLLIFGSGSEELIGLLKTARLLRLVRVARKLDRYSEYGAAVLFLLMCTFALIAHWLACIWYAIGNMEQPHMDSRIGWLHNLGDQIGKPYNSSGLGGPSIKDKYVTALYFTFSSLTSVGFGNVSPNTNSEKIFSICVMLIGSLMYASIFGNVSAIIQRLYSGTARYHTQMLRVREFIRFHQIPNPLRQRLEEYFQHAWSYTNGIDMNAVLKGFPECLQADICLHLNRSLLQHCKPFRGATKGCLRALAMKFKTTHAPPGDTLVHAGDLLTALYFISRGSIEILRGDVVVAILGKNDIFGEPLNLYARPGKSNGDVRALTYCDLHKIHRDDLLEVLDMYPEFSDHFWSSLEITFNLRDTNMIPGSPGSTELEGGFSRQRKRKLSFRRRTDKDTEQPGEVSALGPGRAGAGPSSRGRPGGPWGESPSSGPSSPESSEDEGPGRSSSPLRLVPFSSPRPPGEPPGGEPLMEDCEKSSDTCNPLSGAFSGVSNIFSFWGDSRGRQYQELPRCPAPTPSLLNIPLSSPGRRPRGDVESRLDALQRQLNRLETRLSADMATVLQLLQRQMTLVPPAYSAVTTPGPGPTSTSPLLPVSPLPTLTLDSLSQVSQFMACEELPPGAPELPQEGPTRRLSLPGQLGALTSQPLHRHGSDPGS

SMILES	solubility kinetic at 2 h [1]	IC50 (hERG channels)	Absorption peak [2]	Absorbance × 10^4 [2]	IC50 at 3 days [3]	Tumor/background ratio (RT112 tumor)
C[N+]1=C(/C=C/C2=C(Cl)C(=C/C=C3/N(CCOCCC(=O)Oc4ccccc4)c4ccccc4C3(C)C)/CCC2)C(C)(C)c2ccccc21.[Cl-] [Example 95]	99 µg/mL	0.98 µM	793.5 nm	2.41	> 10000 nM	2.8
COCCOCCOCCN1/C(=C/C=C2\CCCC(/C=C/C3=[N+](CCOCCOCCC(=O)O)c4ccccc4C3(C)C)=C2Cl)C(C)(C)c2ccccc21 [Example 70]	> 250 µg/mL	0.568 µM	796.5 nm	2.09	> 10000 nM	2.7
CC[N+]1=C(/C=C/C2=C(Cl)C(=C/C=C3/N(CCCCCC(=O)Oc4ccccc4)c4ccccc4C3(C)C)/CCC2)C(C)(C)c2ccccc21.[Cl-] [Comparative Example 1, 2-((E)-2-((E)-2-chloro-3-(2-((E)-3,3-dimethyl-1-(6-oxo-6-phenoxyhexyl)indolin-2-ylidene)ethenyl)cyclohex-1-en-1-yl)ethenyl)-1-ethyl-3,3-dimethyl-3H-indol-1-ium Chloride, reference compound]	5 µg/mL	< 0.12 µM	794.5 nm	2.16	2700 nM	2.4
COCCOCCOCCOCCN1/C(=C/C=C2\CCCC(/C=C/C3=[N+](CCOCCOCCC(=O)O)c4ccccc4C3(C)C)=C2Cl)C(C)(C)c2ccccc21 [Example 73, 1-(2-(2-(2-carboxyethoxy)ethoxy)ethyl)-2-((E)-2-((E)-2-chloro-3-(2-((E)-3,3-dimethyl-1-(2,5,8,11-tetraoxatridecan-13-yl)indolin-2-ylidene)ethenyl)cyclohex-1-en-1-yl)ethenyl)-3,3-dimethyl-3H-indol-1-ium Chloride]	> 250 µg/mL	1.66 µM	796.5 nm	2.15	> 10000 nM	2.7
COCCOCCN1/C(=C/C=C2\CCCC(/C=C/C3=[N+](CCOCCOCCC(=O)O)c4ccccc4C3(C)C)=C2Cl)C(C)(C)c2ccccc21 [Example 68, 1-(2-(2-(2-carboxyethoxy)ethoxy)ethyl)-2-((E)-2-((E)-2-chloro-3-(2-((E)-1-(2-(2-methoxyethoxy)ethyl)-3,3-dimethylindolin-2-ylidene)ethenyl)cyclohex-1-en-1-yl)ethenyl)-3,3-dimethyl-3H-indol-1-ium 2,2,2-trifluoroacetate]	> 250 µg/mL	0.89 µM	796 nm	2.74	> 10000 nM	2.5
CN(C)C1CC(/C=C/C2=[N+](C)c3ccccc3C2(C)C)=C(Cl)C(=C/C=C2/N(CCCCCC(=O)O)c3ccccc3C2(C)C)/C1 (stereo not drawn) [Example 87]	38 µg/mL	1.42 µM	785 nm	1.91	> 10000 nM	3.3
